Results published in PubChem BioAssay (NCI).
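GI50: concentration for 50% inhibition of growth. The concentration for full growth arrest is given as TGI.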

How the values were obtained:
Experiment in all cases: NCI-60 cell line screen, 384-well format
[1] = system: 786-0 renal
[2] = system: A498 renal
[3] = system: A549 NSCLC
[4] = system: ACHN renal
[5] = system: BT-549 breast
[6] = system: CAKI-1 renal
[7] = system: COLO 205 colon
[8] = system: DU-145 prostate
[9] = system: EKVX NSCLC
[10] = system: HCT-116 colon
[11] = system: HCT-15 colon
[12] = system: HL-60(TB) leukemia
[13] = system: HOP-62 NSCLC
[14] = system: HOP-92 NSCLC
[15] = system: HS 578T breast
[16] = system: HT29 colon
[17] = system: IGROV1 ovarian
[18] = system: K-562 leukemia
[19] = system: KM12 colon
[20] = system: M14 melanoma
[21] = system: MALME-3M melanoma
[22] = system: MCF7 breast
[23] = system: MDA-MB-231 breast
[24] = system: MDA-MB-435 melanoma
[25] = system: MDA-MB-468 breast
[26] = system: MOLT-4 leukemia
[27] = system: NCI-H226 lung
[28] = system: NCI-H23 lung
[29] = system: NCI-H322M lung
[30] = system: NCI-H460 NSCLC
[31] = system: NCI-H522 lung
[32] = system: OVCAR-3 ovarian
[33] = system: OVCAR-4 ovarian
[34] = system: OVCAR-5 ovarian
[35] = system: OVCAR-8 ovarian
[36] = system: PC-3 prostate
[37] = system: RXF 393 renal
[38] = system: SF-268 CNS
[39] = system: SF-295 CNS
[40] = system: SF-539 CNS
[41] = system: SK-MEL-2 melanoma
[42] = system: SK-MEL-28 melanoma
[43] = system: SK-MEL-5 melanoma
[44] = system: SK-OV-3 ovarian
[45] = system: SN12C renal
[46] = system: SNB-19 CNS
[47] = system: SNB-75 CNS
[48] = system: SR leukemia
[49] = system: SW-620 colon
[50] = system: T-47D breast
[51] = system: TK-10 renal
[52] = system: U251 glioblastoma
[53] = system: UACC-257 melanoma
[54] = system: UACC-62 melanoma
[55] = system: UO-31 renal
[56] = system: CCRF-CEM leukemia
[57] = system: HCC-2998 colon
[58] = system: LOX IMVI melanoma
[59] = system: NCI/ADR-RES ovarian
[60] = system: RPMI-8226 leukemia

COc1cc2c(N3CCN(C(=O)Nc4ccc(OC(C)C)cc4)CC3)ncnc2cc1OCCCN1CCCCC1
GI50 [1]: 8.32 µM | TGI [1]: 20.7 µM | GI50 [2]: 5.09 µM | TGI [2]: 17.3 µM | GI50 [3]: 14.1 µM | TGI [3]: 29 µM | GI50 [4]: 9.76 µM | TGI [4]: 22.6 µM | GI50 [5]: 8.6 µM | TGI [5]: 20.8 µM | GI50 [6]: 2.25 µM | TGI [6]: 6.6 µM | GI50 [7]: 12.1 µM | TGI [7]: 24.7 µM | GI50 [8]: 12.5 µM | TGI [8]: 26.3 µM | GI50 [9]: 5.21 µM | TGI [9]: 19.5 µM | GI50 [10]: 9.38 µM | TGI [10]: 21.6 µM | GI50 [11]: 15.8 µM | TGI [11]: 29.5 µM | GI50 [12]: 15 µM | TGI [12]: 28.4 µM | GI50 [13]: 7.62 µM | TGI [13]: 21.1 µM | GI50 [14]: 9.13 µM | TGI [14]: 21.3 µM | GI50 [15]: 4.87 µM | TGI [15]: 17.9 µM | GI50 [16]: 3.24 µM | TGI [16]: 11.3 µM | GI50 [17]: 13.4 µM | TGI [17]: 26.9 µM | GI50 [18]: 3.31 µM | TGI [18]: 11.5 µM | GI50 [19]: 12.3 µM | TGI [19]: 25.1 µM | GI50 [20]: 12.3 µM | TGI [20]: 24.9 µM | GI50 [21]: 5.03 µM | TGI [21]: 17.2 µM | GI50 [22]: 3.18 µM | TGI [22]: 15.1 µM | GI50 [23]: 13.6 µM | TGI [23]: 31.4 µM | GI50 [24]: 13 µM | TGI [24]: 25.9 µM | GI50 [25]: 3.91 µM | TGI [25]: 14.5 µM | GI50 [26]: 2.61 µM | TGI [26]: 5.95 µM | GI50 [27]: 7.66 µM | TGI [27]: 21.5 µM | GI50 [28]: 12 µM | TGI [28]: 25.7 µM | GI50 [29]: 12.1 µM | TGI [29]: 32.7 µM | GI50 [30]: 2.48 µM | TGI [30]: 12.2 µM | GI50 [31]: 12.5 µM | TGI [31]: 25 µM | GI50 [32]: 14.3 µM | TGI [32]: 28.2 µM | GI50 [33]: 13.9 µM | TGI [33]: 30.5 µM | GI50 [34]: 13.1 µM | TGI [34]: 35 µM | GI50 [35]: 11.3 µM | TGI [35]: 32.3 µM | GI50 [36]: 10.8 µM | TGI [36]: 24 µM | GI50 [37]: 2.82 µM | TGI [37]: 9.78 µM | GI50 [38]: 8.64 µM | TGI [38]: 21.1 µM | GI50 [39]: 11.5 µM | TGI [39]: 23.8 µM | GI50 [40]: 1.84 µM | TGI [40]: 16.4 µM | GI50 [41]: 3.78 µM | TGI [41]: 12.8 µM | GI50 [42]: 12.3 µM | TGI [42]: 24.8 µM | GI50 [43]: 9 µM | TGI [43]: 21.1 µM | GI50 [44]: 12.5 µM | TGI [44]: 25.2 µM | GI50 [45]: 13.1 µM | TGI [45]: 26.2 µM | GI50 [46]: 16 µM | TGI [46]: 41.6 µM | GI50 [47]: 9.87 µM | TGI [47]: 21.6 µM | GI50 [48]: 1.93 µM | TGI [48]: 3.54 µM | GI50 [49]: 10.9 µM | TGI [49]: 23.1 µM | GI50 [50]: 10.4 µM | TGI [50]: 22.3 µM | GI50 [51]: 10.8 µM | TGI [51]: 25.2 µM | GI50 [52]: 11 µM | TGI [52]: 23.1 µM | GI50 [53]: 1.99 µM | TGI [53]: 4.04 µM | GI50 [54]: 7.65 µM | TGI [54]: 20.6 µM | GI50 [55]: 16.4 µM | TGI [55]: 30.1 µM

CN[C@@H](C)C(=O)N[C@H]1CN(S(=O)(=O)c2cccc(S(=O)(=O)N3CC[C@H]4CC[C@@H](C(=O)NC(c5ccccc5)c5ccccc5)N4C(=O)[C@@H](NC(=O)[C@H](C)NC)C3)c2)CC[C@H]2CC[C@@H](C(=O)NC(c3ccccc3)c3ccccc3)N2C1=O
GI50 [1]: 23.5 µM | TGI [1]: 62.8 µM | GI50 [2]: 35.8 µM | TGI [2]: > 100 µM | GI50 [3]: 46.6 µM | TGI [3]: > 100 µM | GI50 [4]: > 100 µM | TGI [4]: > 100 µM | GI50 [6]: > 100 µM | TGI [6]: > 100 µM | GI50 [56]: 0.0133 µM | TGI [56]: 1.46 µM | GI50 [7]: 12.5 µM | TGI [7]: 26 µM | GI50 [8]: 2.3 µM | TGI [8]: 16.7 µM | GI50 [57]: 11.7 µM | TGI [57]: 24 µM | GI50 [10]: 23.7 µM | TGI [10]: 87.5 µM | GI50 [11]: > 100 µM | TGI [11]: > 100 µM | GI50 [12]: < 0.01 µM | TGI [12]: < 0.01 µM | GI50 [13]: 0.57 µM | TGI [13]: 4.56 µM | GI50 [14]: 0.242 µM | TGI [14]: 2.69 µM | GI50 [16]: 16 µM | TGI [16]: 35.7 µM | GI50 [17]: 16.1 µM | TGI [17]: 30.3 µM | GI50 [18]: 4.42 µM | TGI [18]: 22.4 µM | GI50 [19]: 12.4 µM | TGI [19]: 24.9 µM | GI50 [58]: 13 µM | TGI [58]: 25.7 µM | GI50 [20]: 20.3 µM | TGI [20]: 44.9 µM | GI50 [21]: < 0.01 µM | TGI [21]: 0.0336 µM | GI50 [22]: 1.84 µM | TGI [22]: 5.7 µM | GI50 [23]: < 0.01 µM | TGI [23]: < 0.01 µM | GI50 [24]: 0.0478 µM | TGI [24]: 16.8 µM | GI50 [25]: < 0.01 µM | TGI [25]: 0.0196 µM | GI50 [26]: 6.56 µM | TGI [26]: 18.6 µM | GI50 [27]: 17.4 µM | TGI [27]: 47.7 µM | GI50 [28]: 0.0315 µM | TGI [28]: 0.459 µM | GI50 [29]: 16.6 µM | TGI [29]: 30.3 µM | GI50 [30]: 11.2 µM | TGI [30]: 25.5 µM | GI50 [31]: 0.0634 µM | TGI [31]: 2.93 µM | GI50 [59]: 46.1 µM | TGI [59]: > 100 µM | GI50 [32]: 2.17 µM | TGI [32]: 17.6 µM | GI50 [33]: < 0.01 µM | TGI [33]: < 0.01 µM | GI50 [34]: 19.1 µM | TGI [34]: 34.8 µM | GI50 [35]: 2.24 µM | TGI [35]: 19.3 µM | GI50 [36]: 15.5 µM | TGI [36]: 28.9 µM | GI50 [60]: 0.0326 µM | TGI [60]: 1.23 µM | GI50 [37]: < 0.01 µM | TGI [37]: 0.073 µM | GI50 [38]: 13.2 µM | TGI [38]: 26 µM | GI50 [39]: 11 µM | TGI [39]: 23.6 µM | GI50 [40]: 16.6 µM | TGI [40]: 30.2 µM | GI50 [41]: < 0.01 µM | TGI [41]: < 0.01 µM | GI50 [42]: 12.6 µM | TGI [42]: 25.2 µM | GI50 [43]: 0.11 µM | TGI [43]: 0.422 µM | GI50 [45]: 20.8 µM | TGI [45]: 37.3 µM | GI50 [46]: 16.6 µM | TGI [46]: 30.2 µM | GI50 [48]: 0.0253 µM | TGI [48]: 2.82 µM | GI50 [49]: 37.7 µM | TGI [49]: > 100 µM | GI50 [50]: 13.8 µM | TGI [50]: 28 µM | GI50 [51]: 44 µM | TGI [51]: > 100 µM | GI50 [52]: 12.6 µM | TGI [52]: 25.9 µM | GI50 [53]: 11.7 µM | TGI [53]: 24.4 µM | GI50 [54]: 13.9 µM | TGI [54]: 27.5 µM | GI50 [55]: 76 µM | TGI [55]: > 100 µM
